The values that follow come from ChEMBL document CHEMBL1148473, “Sabadinine: a potential non-peptide anti-severe acute-respiratory-syndrome agent identified using structure-aided design” (J Med Chem, 2004).

In experiment [1] the test system is Coronaviridae. Put plainly: Evaluated for effect on murine coronavirus replication; No effect. The format is functional, organism-based.
Experiment [2] has as its system Murine hepatitis virus strain A59. The experiment can be described thus: Evaluated for cellular toxicity against mouse hepatitis virus strain A59 up to 100 uM, Not toxic. In kind it is functional, organism-based.
For experiment [3], the species on record is Homo sapiens. Put plainly: Compound was tested for inhibition of a proteinase 3CL pro of human coronavirus; Inhibited.

The source made the active and inactive calls. The rule behind the calls is not given here.

In the case of `CC1CCC2N(C1)CC1[C@](O)(C(O)C[C@@]3(O)C4CCC5C6(O)OC4(C[C@@]13O)C5(C)CCC6O)[C@]2(C)O` (stereo partly drawn), in experiment [1], the outcome was inactive. Besides, the values for the Activity result in experiment [2] and in experiment [3] were “Not toxic” and “Inhibited”, respectively.
